# Source: patent US8377983B2, “Benzazole derivatives, compositions, and methods of use as aurora kinase inhibitors” (TransTech Pharma, Inc., priority 2006, dated 2013)
# pIC50: −log10 of the molar value.
# Legend:
# [1] = system: human MiaPaCa-2 pancreatic xenografts; assay: MiaPaCa-2 xenograft model, Example 88 alone and in combination with erlotinib; format: in vivo, athymic mice; conditions: for Median Tumor Size: Example 88 10 mg/kg i.p. b.i.d. 10 days, erlotinib 50 mg/kg p.o. daily 14 days; for complete responders (CR, 100% reduction in tumor size) / partial responders (PR, greater than 50% reduction in tumor size): day 42, out of 8 mice, 10 mg/kg
# Method: (§1) Compounds were dosed on the following schedules:
# 2) Erlotinib was dosed 50 mg/kg, p.o., daily for 14 days (days 1-14).
# Mice-bearing sc tumors were randomized, and treatment groups consisted of 8 mice.
# [2] = system: HCT-116, BxPC-3, A549, BT-549, LNCaP, MIA Paca-2 tumor cells; assay: In vitro cell proliferation (alamarBlue); format: cell-based; conditions: Homo sapiens; 96 hr incubation; read-out: IC50 against at least one of HCT-116, MIA Paca-2, or LNCaP cells
# Method: Compounds are tested for their ability to inhibit cell proliferation and viability. The metabolic reduction of alamarBlue™ (Biosource cat. no. DAL1100) was used to measure cell viability.
# The anti-proliferative activity of compounds is studied using a panel of tumor cells: HCT-116 (human colorectal carcinoma cell line), BxPC-3 (human pancreatic adenocarcinoma cell line), A549 (human lung carcinoma cell line), BT-549 (human breast carcinoma cell line), LNCaP (human prostate carcinoma cell line), and MIA Paca-2 (human pancreatic carcinoma cell line). These adherent cells (1,000-20,000) are plated in complete media (RPMI-1640, DMEM, F12K, or McCoy's 5A) containing 10% fetal bovine serum (Gibco) in tissue culture treated 96-well plates (Costar) and placed in a humidified incubator at 37° C., […], 5% CO2 for 18-24 hr. Media was removed and replaced with 90 μL fresh media. Compound is diluted in media containing 3% DMSO and added to cells. Background (C^−) relative fluorescent units are determined by incubating alamarBlue™ reagent for 6 hr using untreated cells plated 18 hr earlier. Untreated cells or cells containing compound are incubated for 96 hr. During the last 6 hr of the incubation period, alamarBlue™ reagent (10 μL) was added to each well and incubated in a humidified incubator at 37° C., […], 5% CO2.
# AlamarBlue™ reduction is measured in a fluorescence plate reader with instrument settings for excitation at 530 nm and emission at 590 nm. […] Compound IC50 values are determined from % inhibition versus compound concentration curve plots using GraphPad Prism™ according to the 4 parameter logistic equation Y=Bottom+(Top−Bottom)/1+10^((Log EC50−X)*HillSlope)).
# [3] = system: human MiaPaCa-2 pancreatic xenografts; assay: MiaPaCa-2 xenograft model, Example 88 alone and in combination with gemcitabine; format: in vivo, athymic mice; conditions: for Median Tumor Size: Example 88 10 mg/kg i.p. b.i.d. 10 days, gemcitabine 120 mg/kg i.p. q3d×4
# Method: as §1
# 2) Gemcitabine was dosed 120 mg/kg, i.p., q3d×4 (days 1, 4, 7, 10).
# Drug treatment started when mean tumor sizes reached approximately 120 mg (day 8). Mice-bearing sc tumors were randomized, and treatment groups consisted of 8 mice. The median tumor size for each group at various points in the study are listed below in Table B.
# [4] = day 8 of study (treatment start)
# [5] = day 42, out of 8 mice, Example 88 10 mg/kg, gemcitabine 120 mg/kg
smiles,measurement,setting,value
"C#Cc1cccc(Nc2ncnc3cc(OCCOC)c(OCCOC)cc23)c1 [Erlotinib, erlotinib, reference compound]",Median Tumor Size,[1]; [4],120 mg
same,Median Tumor Size,[1]; day 10 of study,144 mg
same,Median Tumor Size,[1]; day 13 of study,192 mg
same,Median Tumor Size,[1]; day 16 of study,267 mg
same,Median Tumor Size,[1]; day 20 of study,363 mg
same,inhibition of tumor growth relative to vehicle-treated tumors,"[1]; day 23, Example 88 10 mg/kg, erlotinib 50 mg/kg",16%
same,Median Tumor Size,[1]; day 23 of study,507 mg
same,Median Tumor Size,[1]; day 27 of study,700 mg
same,Median Tumor Size,[1]; day 30 of study,908 mg
same,Median Tumor Size,[1]; day 34 of study,1224 mg
same,Median Tumor Size,[1]; day 37 of study,1296 mg
same,"complete responders (CR, 100% reduction in tumor size)",[1]; erlotinib 50 mg/kg,0/8
same,"partial responders (PR, greater than 50% reduction in tumor size)",[1]; erlotinib 50 mg/kg,0/8
same,Median Tumor Size,[1]; day 42 of study,1368 mg
"CC(C)c1ccccc1Nc1nc2cc(C(=O)Nc3ccc4cn[nH]c4c3)ccc2[nH]1 [Example 27, 2-(2-Isopropylphenylamino)-3H-benzimidazole-5-carboxylic acid (1H-indazol-6-yl)-amide]",pIC50,[2],≥ 5.52
"O=C(Nc1ccc2cn[nH]c2c1)c1ccc2[nH]c(Nc3ccccc3C(F)(F)F)nc2c1 [Example 35, 2-(2-Trifluoromethylphenylamino)-3H-benzimidazole-5-carboxylic acid (1H-indazol-6-yl)-amide]",pIC50,[2],≥ 5.52
"Cc1cccnc1Nc1nc2cc(C(=O)Nc3ccc4cn[nH]c4c3)ccc2[nH]1 [Example 36, 2-(3-Methylpyridin-2-ylamino)-3H-benzimidazole-5-carboxylic acid(1H-indazol-6-yl)-amide]",pIC50,[2],≥ 5.52
"CC(C)c1ccccc1Nc1nc2cc(C(=O)Nc3ccc4cn[nH]c4c3)c(N3CCN(C)CC3)cc2[nH]1 [Example 48, 2-(2-Isopropylphenylamino)-6-(4-methyl-piperazin-1-yl)-1H-benzimidazole-5-carboxylic acid (1H-indazol-6-yl)-amide]",pIC50,[2],≥ 5.52
"CN1CCN(c2cc3[nH]c(Nc4ccccc4C(F)(F)F)nc3cc2C(=O)Nc2ccc3cn[nH]c3c2)CC1 [Example 50, 6-(4-Methylpiperazin-1-yl)-2-(2-trifluoromethyl-phenylamino)-1H-benzimidazole-5-carboxylic acid (1H-indazol-6-yl)-amide]",pIC50,[2],≥ 5.52
"O=C(Nc1ccc2cn[nH]c2c1)c1cc2nc(Nc3ccccc3C(F)(F)F)[nH]c2cc1N1CCOCC1 [Example 54, 6-Morpholin-4-yl-2-(2-trifluoromethylphenylamino)-1H-benzimidazole-5-carboxylic acid (1H-indazol-6-yl)-amide]",pIC50,[2],≥ 5.52
"O=C(Nc1ccc2cn[nH]c2c1)c1cc2nc(Nc3ccccc3C(F)(F)F)[nH]c2cc1N1CCCCC1 [Example 57, 6-Piperidin-1-yl-2-(2-trifluoromethyl-phenylamino)-1H-benzimidazole-5-carboxylic acid (1H-indazol-6-yl)-amide]",pIC50,[2],≥ 5.52
"Cc1cccnc1Nc1nc2cc(C(=O)Nc3ccc4cn[nH]c4c3)c(N3CCN(C)CC3)cc2[nH]1 [Example 58, 6-(4-Methyl-piperazin-1-yl)-2-(3-methyl-pyridin-2-ylamino)-1H-benzimidazole-5-carboxylic acid (1H-indazol-6-yl)-amide]",pIC50,[2],≥ 5.52
"Cc1cccnc1Nc1nc2cc(C(=O)Nc3ccc4cn[nH]c4c3)c(N3CCOCC3)cc2[nH]1 [Example 60, 2-(3-Methylpyridin-2-ylamino)-6-morpholin-4-yl-1H-benzimidazole-5-carboxylic acid (1H-indazol-6-yl)-amide]",pIC50,[2],≥ 5.52
"CCc1cccc(CC)c1Nc1nc2cc(C(=O)Nc3ccc4cn[nH]c4c3)ccc2[nH]1 [Example 91, 2-(2,6-diethylphenylamino)-3H-benzimidazole-5-carboxylic acid (1H-indazol-6-yl)-amide]","complete responders (CR, 100% reduction in tumor size)",[1]; erlotinib 50 mg/kg,0/8
same,"partial responders (PR, greater than 50% reduction in tumor size)",[1]; erlotinib 50 mg/kg,0/8
"Nc1ccn([C@@H]2O[C@H](CO)[C@@H](O)C2(F)F)c(=O)n1 [Gemcitabine, reference compound]",Median Tumor Size,[3]; [4],120 mg
same,Median Tumor Size,[3]; day 10 of study,144 mg
same,Median Tumor Size,[3]; day 13 of study,144 mg
same,Median Tumor Size,[3]; day 16 of study,153 mg
same,Median Tumor Size,[3]; day 20 of study,221 mg
same,inhibition of tumor growth relative to vehicle-treated tumors,"[3]; day 23, Example 88 10 mg/kg, gemcitabine 120 mg/kg",60%
same,Median Tumor Size,[3]; day 23 of study,246 mg
same,Median Tumor Size,[3]; day 27 of study,336 mg
same,Median Tumor Size,[3]; day 30 of study,472 mg
same,Median Tumor Size,[3]; day 34 of study,675 mg
same,Median Tumor Size,[3]; day 37 of study,824 mg
same,"complete responders (CR, 100% reduction in tumor size)",[3]; [5],0/8
same,"partial responders (PR, greater than 50% reduction in tumor size)",[3]; [5],0/8
same,Median Tumor Size,[3]; day 42 of study,988 mg
